Measurements from the supplement of paper PMC10307832.

What was measured:
Assay in all cases: relative viability (nuclei count vs DMSO), 5 days (fraction); higher = more cells survive
Metformin + OSI-027 = compound: CN(C)C(=N)NC(=N)N [Metformin] + COc1cccc2cc(-c3nc([C@H]4CC[C@H](C(=O)O)CC4)n4ncnc(N)c34)[nH]c12 [OSI-027] (partner 0.5 µM)
Outline: (§1)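 A single step with final 0.05% Triton X-100, 1% formaldehyde and 1 ug/ml Hoechst fixed the cells and stained nuclei 5 days after treatment. Lung cancer cell lines in 1536-well plates had been treated by pin tool the day after seeding with one drug alone or a fixed anchor-drug dose plus five library-drug doses (not always all listed) in √10 steps, and nuclei were counted on 4× images. Relative viability is the ratio of nuclei in treated wells to nuclei in vehicle wells, taken as the median of duplicate plates.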

Metformin + Crizotinib = compound: CN(C)C(=N)NC(=N)N [Metformin] + C[C@@H](Oc1cc(-c2cnn(C3CCNCC3)c2)cnc1N)c1c(Cl)ccc(F)c1Cl [Crizotinib] (partner 1 µM)
Outline: as §1

Metformin + Decitabine = compound: CN(C)C(=N)NC(=N)N [Metformin] + Nc1ncn([C@H]2C[C@H](O)[C@@H](CO)O2)c(=O)n1 [Decitabine] (partner 2 µM)
Outline: as §1

Apatinib + OSI-027 = compound: N#CC1(c2ccc(NC(=O)c3cccnc3NCc3ccncc3)cc2)CCCC1 [Apatinib] + COc1cccc2cc(-c3nc([C@H]4CC[C@H](C(=O)O)CC4)n4ncnc(N)c34)[nH]c12 [OSI-027] (partner 0.5 µM)
Outline: as §1

Cell Line | relative viability (Metformin + OSI-027; first compound 10 µM) | relative viability (Metformin + OSI-027; first compound 31.62 µM) | relative viability (Metformin + OSI-027; first compound 100 µM) | relative viability (Metformin + OSI-027; first compound 316.23 µM) | relative viability (Metformin + OSI-027; first compound 1000 µM) | relative viability (Metformin + Crizotinib; first compound 10 µM) | relative viability (Metformin + Crizotinib; first compound 31.62 µM) | relative viability (Metformin + Crizotinib; first compound 100 µM) | relative viability (Metformin + Crizotinib; first compound 316.23 µM) | relative viability (Metformin + Crizotinib; first compound 1000 µM) | relative viability (Metformin + Decitabine; first compound 10 µM) | relative viability (Metformin + Decitabine; first compound 31.62 µM) | relative viability (Metformin + Decitabine; first compound 100 µM) | relative viability (Metformin + Decitabine; first compound 316.23 µM) | relative viability (Metformin + Decitabine; first compound 1000 µM) | relative viability (Apatinib + OSI-027; first compound 0.08 µM) | relative viability (Apatinib + OSI-027; first compound 0.253 µM) | relative viability (Apatinib + OSI-027; first compound 0.8 µM) | relative viability (Apatinib + OSI-027; first compound 2.53 µM) | relative viability (Apatinib + OSI-027; first compound 8 µM)
LOU-NH91 | 0.711 | 0.71 | 0.644 | 0.775 | 0.767 | 0.747 | 0.806 | 0.766 | 0.802 | 0.847 | 0.787 | 0.799 | 0.848 | 0.797 | 0.79 | 0.636 | 0.667 | 0.599 | 0.619 | 0.676
NCI-H2087 |  | 0.753 | 0.73 | 0.536 | 0.482 | 0.813 | 0.726 | 0.682 | 0.849 | 0.638 | 0.251 | 0.231 | 0.294 | 0.294 | 0.3 | 0.607 | 0.458 | 0.468 | 0.492 | 0.426
LK-2 | 0.194 | 0.169 | 0.199 | 0.195 | 0.209 | 0.228 | 0.214 | 0.234 | 0.176 | 0.245 | 0.298 | 0.398 | 0.33 | 0.294 | 0.444 | 0.217 | 0.197 | 0.157 | 0.205 | 0.167
NCI-H2347 | 0.416 | 0.486 |  | 0.466 | 0.415 | 0.545 | 0.763 | 0.85 | 0.566 | 0.675 | 0.532 | 0.597 | 0.605 | 0.573 | 0.578 | 0.478 | 0.354 | 0.48 | 0.361 | 0.282
COR-L 105 | 0.736 | 0.895 | 0.736 | 0.773 | 0.521 | 0.71 | 0.841 | 0.821 | 0.745 | 0.697 | 0.588 | 0.64 | 0.695 | 0.719 | 0.697 | 0.775 | 0.806 | 0.619 | 0.582 | 0.491
NCI-H1437 | 1.21 | 1.23 | 1.06 | 1 | 1.04 | 0.931 | 0.918 | 0.935 | 0.898 | 0.902 | 0.641 | 0.595 | 0.59 | 0.593 | 0.577 | 0.84 | 0.954 | 0.861 | 0.615 | 0.645
ABC-1 | 0.661 | 0.529 | 0.466 | 0.266 | 0.22 |  | 1.3 | 0.869 | 0.447 | 0.29 |  | 1.12 | 1.2 | 1.54 | 0.548 |  | 0.543 | 0.453 | 0.499 | 0.336
SK-LU-1 | 0.32 | 0.389 | 0.354 | 0.318 | 0.299 | 0.787 | 0.772 | 0.884 | 0.817 | 0.824 | 0.567 | 0.571 | 0.64 | 0.507 | 0.615 | 0.326 | 0.395 | 0.298 | 0.303 | 0.246
NCI-H1755 | 0.614 | 0.729 | 0.701 | 0.636 | 0.579 | 0.677 | 0.792 | 0.744 | 0.756 | 0.753 | 0.685 | 0.535 | 0.643 | 0.644 | 0.635 | 0.838 | 0.729 | 0.699 | 0.672 | 0.523
NCI-H2405 | 0.567 | 0.573 | 0.608 | 0.606 | 0.559 | 0.815 | 0.93 | 0.97 | 0.89 | 0.854 |  | 0.783 | 0.756 | 0.677 | 0.64 | 0.621 | 0.579 | 0.714 | 0.604 | 0.626
NCI-H1993 | 0.587 | 0.603 | 0.554 | 0.507 | 0.514 | 1.12 | 0.849 | 1.22 | 1.06 | 1.31 | 0.616 | 0.681 | 0.672 | 0.634 | 0.766 | 0.627 | 0.596 | 0.549 | 0.49 | 0.494
NCI-H322M | 0.54 | 0.597 | 0.604 | 0.457 | 0.46 | 0.884 | 1.01 | 0.958 | 0.854 | 0.78 | 0.698 | 0.673 | 0.718 | 0.675 | 0.746 | 0.551 | 0.533 | 0.52 | 0.518 | 0.46
EMC-BAC-2 | 0.419 | 0.397 | 0.365 | 0.399 | 0.356 | 0.731 | 0.8 | 0.828 | 0.702 | 0.805 | 0.844 | 1.02 |  | 0.855 | 0.861 | 0.413 | 0.389 | 0.357 | 0.338 | 0.291
PC-14 | 0.648 | 0.929 | 0.657 | 0.607 | 0.574 | 0.889 | 0.912 | 0.896 | 0.769 | 0.894 | 0.27 | 0.291 | 0.186 | 0.211 | 0.235 | 0.805 | 0.956 | 0.596 | 0.748 | 0.602
RERF-LC-KJ | 0.521 | 0.503 | 0.492 | 0.394 | 0.415 | 0.802 | 0.739 | 0.718 | 0.424 | 0.74 | 0.687 | 0.703 | 0.505 | 0.556 | 0.514 | 0.554 | 0.592 | 0.533 | 0.51 | 0.497
NCI-H2085 | 0.649 | 0.54 | 0.721 | 0.718 | 0.703 | 0.952 | 0.694 | 0.947 | 0.721 | 0.879 | 0.498 | 0.453 | 0.484 | 0.531 | 0.524 | 0.858 | 0.706 | 0.767 | 0.612 | 0.549
LC-2-ad |  | 0.69 | 0.693 | 0.531 | 0.588 | 0.369 | 0.357 | 0.338 | 0.415 | 0.378 |  | 0.736 | 0.826 | 0.583 | 0.642 | 0.752 | 0.761 | 0.828 | 0.813 | 0.68
